Results from US5021421A, “2-(1-Piperazinyl)-4-phenylcycloalkanopyridine derivatives, processes for the production thereof, and pharmaceutical composition containing the same” (Dainippon Pharmaceutical Co., Ltd., priority 1989, dated 1991).
Read-outs that look alike come from different tables or passages of the source.

Columns and labels:
dopamine (D2) receptor = target: T1, dopamine (D2) receptor (Rattus norvegicus, UniProt P61169); test: In vitro binding to dopamine (D2) receptor, [3H] spiperone; design: species or system rats; conditions: [3H] spiperone, rat brain crude synaptosome fraction; read-out: IC50 D2
T1 construct: Crude synaptosome fractions were prepared from some brain regions in rats for receptor sources; from tissue
T1 sequence (P61169 whole entry): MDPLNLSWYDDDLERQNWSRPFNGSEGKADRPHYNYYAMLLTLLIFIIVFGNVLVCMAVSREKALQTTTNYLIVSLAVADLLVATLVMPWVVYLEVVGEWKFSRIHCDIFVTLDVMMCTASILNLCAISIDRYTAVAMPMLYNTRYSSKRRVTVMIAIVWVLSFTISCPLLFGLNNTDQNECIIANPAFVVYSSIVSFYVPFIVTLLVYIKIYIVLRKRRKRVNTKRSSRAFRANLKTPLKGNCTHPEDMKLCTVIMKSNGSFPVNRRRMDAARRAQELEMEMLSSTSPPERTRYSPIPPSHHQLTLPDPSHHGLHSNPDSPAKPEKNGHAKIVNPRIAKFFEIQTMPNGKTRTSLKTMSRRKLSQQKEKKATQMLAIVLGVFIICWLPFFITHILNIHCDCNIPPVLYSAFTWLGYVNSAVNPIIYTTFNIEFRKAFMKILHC
Description: (§1) Dopamine (D2), serotonin (S1, S2) and adrenaline (α1) receptor binding assays were carried out according to the methods of I. Creese et al. [Eur. J. Pharmacol., 46, 377 (1977), S. J. Peroutka et al. [Mol. Pharmacol. 16, 687 (1979)], J. E. Leysen et al. [Mol. Pharmacol., 21, 301 (1982)] and D. C. U'Prichard et al. [Mol. Pharmacol., 13, 454 (1977)], respectively.
(§2) Crude synaptosome fractions were prepared from some brain regions in rats for receptor sources. Radioactive ligands used were [^3 H] spiperone (D2), [^3 H] serotonin (S1), [^3 H] ketanserin (S2) and [^3 H] WB-4101 (α1). The binding assay was performed by incubating aliquots of synaptosome fraction in buffer solution (final volume: 1 ml) containing a [^3 H] labelled ligand and a test compound. The assay was terminated by rapid filtration through Whatman GF/B glass fiber filters attached to a cell-harvester (Brandel) and radioactivity on the filters was counted in a Packard Triscarb scintillation counter. Specific binding was calculated as a difference between amounts of radioactivity in the presence and absence of an unlabelled ligand [spiperone (D2), serotonin (S1), methysergide (S2) and prazosin (α1)]. The IC50 value of the test compounds (concentration causing 50% inhibition of [^3 H] ligand specific binding) was determined by probit analysis.

serotonin (S2) receptor = target: T2, serotonin (S2) receptor (Rattus norvegicus, UniProt P14842); test: In vitro binding to serotonin (S2) receptor, [3H] ketanserin; design: species or system rats; conditions: [3H] ketanserin, rat brain crude synaptosome fraction
T2 construct: Crude synaptosome fractions were prepared from some brain regions in rats for receptor sources; from tissue
T2 sequence (P14842 whole entry): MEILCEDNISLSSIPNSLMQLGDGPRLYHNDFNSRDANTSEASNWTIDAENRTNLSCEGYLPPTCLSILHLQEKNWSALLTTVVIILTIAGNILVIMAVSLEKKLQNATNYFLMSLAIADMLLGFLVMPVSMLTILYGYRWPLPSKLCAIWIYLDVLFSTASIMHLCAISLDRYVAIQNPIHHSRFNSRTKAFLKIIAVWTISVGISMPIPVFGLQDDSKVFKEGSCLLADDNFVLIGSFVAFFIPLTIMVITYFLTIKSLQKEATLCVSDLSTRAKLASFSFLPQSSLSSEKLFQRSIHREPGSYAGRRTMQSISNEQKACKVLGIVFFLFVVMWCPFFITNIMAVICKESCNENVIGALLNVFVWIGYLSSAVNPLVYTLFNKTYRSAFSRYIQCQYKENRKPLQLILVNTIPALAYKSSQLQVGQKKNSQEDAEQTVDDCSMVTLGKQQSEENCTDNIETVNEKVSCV
Description: as §1, §2

exploratory activity = test: Inhibitory effect on exploratory activity (Animex activity meter); format: in vivo, mice (Std-ddy strain); conditions: oral, 2 h after administration, 3 min counting; dose not given
Description: A group of 5 male mice (Std-ddy strain, 20-25 g) was used. Two hours after oral administration of the test compound, mice were placed individually in a test box (23×35×30 cm) on Animex activity meter (Farad Co.). Immediately thereafter, activity counting was started and lasted for three minutes. The mean counts of the compound-treated group were compared with those of the corresponding control (non-dosed) group, and the percent inhibition was calculated.

adrenaline (α1) receptor = test: In vitro binding to adrenaline (α1) receptor, [3H] WB-4101; design: species or system rats; conditions: [3H] WB-4101, rat brain crude synaptosome fraction
Description: as §1, §2

[1] = tested on: apomorphine-induced vomiting; test: Antagonistic effect on apomorphine-induced vomiting; format: in vivo, dogs (Beagle); conditions: Canis lupus familiaris, sc, apomorphine 0.3 mg/kg s.c. 2 h after compound, read-out: Inhibitory ratio (apomorphine-induced vomiting)
Description: A group of 3-4 dogs (Beagle, 8-15 kg) was used for examining effects on the test compounds on apomorphine-induced vomiting, a known test for evaluating neuroleptic drugs.
Each dog was given a subcutaneous injection of apomorphine hydrochloride (0.3 mg/kg) two hours after the treatment of the test compounds. Then, the frequency of oral vomiting was counted for one hour. The mean counts of the compound-treated group were compared with those of the corresponding control (non-dosed) group, and the percent inhibition was calculated.

[2] = tested on: brain monoamine metabolites; test: Increasing effect on concentration of brain monoamine metabolites; format: in vivo, mice (Std-ddy strain); conditions: Mus musculus, 2 h, non-dosed=100
Description: A group of 5 male mice (Std-ddy strain, 25-30 g) was used for examining effect of the test compounds on concentration of brain monoamine metabolites.
Mice were killed by decapitation 2 hours after treatment with the test compounds. Brains were quickly taken out, homogenized in 1N formic acid-acetone solution, and centrifuged in a refrigerated ultracentrifuge. The supernatant was evaporated by blowing with N2 gas. Then, the residue was again resolved in 0.01 N acetic acid, and served for determining concentration of dopamine metabolites, 3,4-dihydroxyphenylacetic acid (DOPAC) and homovanillic acid (HVA), a norepinephrine metabolite, 3-methyl-4-hydroxyphenylethylene glycol (MOPEG), and a serotonin metabolite, 5-hydroxyindole-3-acetic acid (5-HIAA) concentrations by HPLC with electrochemical detection. The effect of the test compounds on concentration of each monoamine metabolite is shown as % of control (level of non-dosed animals=100) in Table 4.

[3] = read-out: 5-HIAA concentration, % of control
[4] = read-out: DOPAC concentration, % of control
[5] = read-out: HVA concentration, % of control

With `CCN1CCN(c2cc(-c3ccc(F)cc3F)c3c(n2)CCCCCC3)CC1` [Example 2a, 2-(4-ethyl-1-piperazinyl)-4-(2,4-difluorophenyl)-5,6,7,8,9,10-hexahydrocycloocta[b] pyridine] the IC50 (dopamine (D2) receptor) was 24 nM, the IC50 (serotonin (S2) receptor) was 28 nM and the “Inhibitory ratio (exploratory activity)” value (exploratory activity) was 77.5%. The IC50 (adrenaline (α1) receptor) was 88 nM.

`OCCN1CCN(c2cc(-c3ccc(F)cc3)c3c(n2)CCC3)CC1` [Example 7, 2-[4-(2-Hydroxyethyl)-1-piperazinyl]-4-(4-fluoro-phenyl)-6,7-dihydro-5H-1-pyrindine] was tested, and the IC50 (dopamine (D2) receptor) was 30 nM, the IC50 (serotonin (S2) receptor) was 9.5 nM and the inhibition in vivo at 1 mg/kg [1] was 80%.

For `CCN1CCN(c2cc(-c3ccc(Cl)cc3)c3c(n2)CCCCC3)CC1` [Example 31], the “Inhibitory ratio (exploratory activity)” value (exploratory activity) was 62.5%.

`CCN1CCN(c2cc(-c3ccccc3)c3c(n2)CCCCCC3)CC1` [Example 36] was tested, and the inhibition in vivo at 0.5 mg/kg [1] was 81% and the “Inhibitory ratio (exploratory activity)” value (exploratory activity) was 68.4%.

With `Fc1ccc(-c2cc(N3CCN(C4CCCC4)CC3)nc3c2CCCCCC3)cc1` [Example 38] the “Inhibitory ratio (exploratory activity)” value (exploratory activity) was 58.9%.

`OCCN1CCN(c2cc(-c3ccc(F)cc3F)c3c(n2)CCCCCC3)CC1` [Example 53] was tested, and the “Inhibitory ratio (exploratory activity)” value (exploratory activity) was 68.1%.

In the case of `CCN1CCN(c2cc(-c3ccccc3)c3c(n2)CCC(C)C3)CC1` (stereo not drawn) [Example 57], the “Inhibitory ratio (exploratory activity)” value (exploratory activity) is reported as 77.2%.

Compound `CCN1CCN(c2cc(-c3ccccc3)c3c(n2)C2CCC3C2)CC1` (stereo not drawn) [Example 71] has an IC50 (dopamine (D2) receptor) of 25 nM, an IC50 (serotonin (S2) receptor) of 14 nM and an inhibition in vivo at 3 mg/kg [1] of 84%. For the same compound, the “Inhibitory ratio (exploratory activity)” value (exploratory activity) was 61.9% and the IC50 (adrenaline (α1) receptor) was 13 nM.

`CCN1CCN(c2cc(-c3ccc(F)cc3)c3c(n2)C2CCC3C2)CC1` (stereo not drawn) [Example 73] showed an IC50 (dopamine (D2) receptor) of 18 nM, an IC50 (serotonin (S2) receptor) of 2.4 nM and an inhibition in vivo at 1 mg/kg [1] of 100%. For the same compound, the IC50 (adrenaline (α1) receptor) was 4.6 nM.

With `CCN1CCN(c2cc(-c3ccc(F)cc3)c3c(n2)C2CCC3CC2)CC1` [Example 75] the “Inhibitory ratio (exploratory activity)” value (exploratory activity) was 78.9%.

`CC1CN(c2cc(-c3ccc(F)cc3)c3c(n2)CCCCCC3)CCN1` (stereo not drawn) [Example 83, 2-(3-Methyl-1-piperazinyl)-4-(4-fluorophenyl)-5,6,7,8,9,10-hexahydrocycloocta[b]pyridine] was tested, and the “Inhibitory ratio (exploratory activity)” value (exploratory activity) was 53.5%.

Compound `c1ccc(-c2cc(N3CCNCC3)nc3c2CCCCCC3)cc1` [Example 103] has an IC50 (dopamine (D2) receptor) of 140 nM and an IC50 (serotonin (S2) receptor) of 41 nM.

With `Fc1ccc(-c2cc(N3CCNCC3)nc3c2CCCCCC3)c(F)c1` [Example 106] the “Inhibitory ratio (exploratory activity)” value (exploratory activity) was 74.9%.

With `c1ccc(-c2cc(N3CCNCC3)nc3c2C2CCC3C2)cc1` (stereo not drawn) [Example 107] the “Inhibitory ratio (exploratory activity)” value (exploratory activity) was 53.2%.

With `CN1CCN(c2cc(-c3ccc(F)cc3)c3c(n2)CCC3)CC1` [Example 111, 2-(4-methyl-1-piperazinyl)-4-(4-fluorophenyl)-6,7-dihydro-5H-1-pyrindine] the “Inhibitory ratio (exploratory activity)” value (exploratory activity) was 74.0%.

`CN1CCN(c2cc(-c3ccc(F)cc3)c3c(n2)CCCCCC3)CC1.O=C(O)/C=C\C(=O)O.O=C(O)/C=C\C(=O)O` [Example 112, 2-(4-Methyl-1-piperazinyl)-4-(4-fluorophenyl)-5,6,7,8,9,10-hexahydrocycloocta[b]pyridine dimaleate] was tested, and the inhibition in vivo at 0.2 mg/kg [1] was 94% and the “Inhibitory ratio (exploratory activity)” value (exploratory activity) was 73.2%.

With `CN1CCN(c2cc(-c3ccc(F)cc3F)c3c(n2)CCCCCC3)CC1` [Example 114, 2-(4-Methyl-1-piperazinyl)-4-(2,4-difluorophenyl)-5,6,7,8,9,10-hexahydrocycloocta[b]pyridine] the inhibition in vivo at 0.2 mg/kg [1] was 89% and the “Inhibitory ratio (exploratory activity)” value (exploratory activity) was 81.9%.

For `CCCN1CCN(c2cc(-c3ccc(F)cc3)c3c(n2)CCCCCC3)CC1` [Example 118, 2-(4-n-propyl-1-piperazinyl)-4-(4-fluorophenyl)-5,6,7,8,9,10-hexahydrocycloocta[b]pyridine], the inhibition in vivo at 0.3 mg/kg ([1]; dose 0.3 mg/kg) was 94%, the response vs control in vivo at 3 mg/kg [2, 3] was 110% and the response vs control in vivo at 3 mg/kg [2, 4] was 302%. It also gave a response vs control in vivo at 3 mg/kg [2, 5] of 250% and a response vs control in vivo at 3 mg/kg ([2]; read-out: MOPEG concentration, % of control) of 129%.

For `CC(C)N1CCN(c2cc(-c3ccc(F)cc3)c3c(n2)CCCCCC3)CC1` [Example 121], the inhibition in vivo at 0.5 mg/kg [1] was 93%, the response vs control in vivo at 10 mg/kg [2, 3] was 111% and the response vs control in vivo at 10 mg/kg [2, 4] was 312%. The response vs control in vivo at 10 mg/kg [2, 5] was 215%.

`CCCCN1CCN(c2cc(-c3ccc(F)cc3)c3c(n2)CCCCCC3)CC1` [Example 122, 2-(4-n-Butyl-1-piperazinyl)-4-(4-fluorophenyl)-5,6,7,8,9,10-hexahydrocycloocta[b]pyridine] was tested, and the inhibition in vivo at 0.5 mg/kg [1] was 100%, the “Inhibitory ratio (exploratory activity)” value (exploratory activity) was 81.3% and the response vs control in vivo at 2 mg/kg [2, 3] was 100%. The response vs control in vivo at 2 mg/kg [2, 4] was 306% and the response vs control in vivo at 2 mg/kg [2, 5] was 229%.

With `CCCCCN1CCN(c2cc(-c3ccc(F)cc3)c3c(n2)CCCCCC3)CC1` [Example 123, 2-(4-n-Pentyl-1-piperazinyl)-4-(4-fluorophenyl)-5,6,7,8,9,10-hexahydrocycloocta[b]pyridine] the “Inhibitory ratio (exploratory activity)” value (exploratory activity) was 72.2%.

For `C=CCN1CCN(c2cc(-c3ccc(F)cc3)c3c(n2)CCCCCC3)CC1` [Example 125], the “Inhibitory ratio (exploratory activity)” value (exploratory activity) was 57.9%.

For `CCCN1CCN(c2cc(-c3ccc(F)cc3F)c3c(n2)CCCCCC3)CC1` [Example 127, 2-(4-n-propyl-1-piperazinyl)-4-(2,4-difluorophenyl)-5,6,7,8,9,10-hexahydrocycloocta[b]pyridine], the “Inhibitory ratio (exploratory activity)” value (exploratory activity) was 80.3%.

Compound `COc1ccc(-c2cc(N3CCN(c4ccccc4)CC3)nc(C)c2-c2ccc(OC)cc2)cc1` [Test Compound B, 4,5-Bis-(4-methoxyphenyl)-6-methyl-2-(4-phenylpiperazino)pyridine, reference compound] has an IC50 (dopamine (D2) receptor) greater than 10000 nM and an inhibition in vivo at 3 mg/kg [1] of 13%.

`Cc1nc(N2CCN(c3ccccc3)CC2)cc(-c2ccc(O)cc2)c1-c1ccc(O)cc1` [Test Compound C, 4,5-Bis-(4-hydroxyphenyl)-6-methyl-2-(4-phenylpiperazino)pyridine, reference compound] was tested, and the IC50 (dopamine (D2) receptor) was greater than 10000 nM and the inhibition in vivo at 3 mg/kg [1] was 16%.
